Results on two molecules are retold here after patent publication US20250101046A1 (TAE Life Sciences LLC, priority 2023, published 2025).

Data set [1] is described as follows: Solubility in water / need of fructose to aid solubility. Type of data set: physicochemical.
In a further data set the test system is intracranial tumor. Conditions: BNCT, beam directed to surgically exposed intracranial tumor; cited from earlier work.

Turning to `COc1ccc(C[C@H](N)C(=O)O)cc1[10B](O)O` [TC221, (S)-2-(amino)-3-(4-methoxy-3-boronic acid)propionic acid], the “requirement of fructose to aid solubility” value in data set [1] was “does require fructose”. Further, the solubility in water result in data set [1] (water) is “very soluble”. In data set [1] (with fructose, versus BPA), the “threshold of solubility compared to BPA” value is recorded as “much higher compared to BPA”.

On to “undecahydro-closo-dodecaboratethiol [BSH]”, for which, in the data set with intracranial tumor, the 5-year survival rate was 58%.
